Measurements published in ChEMBL document CHEMBL1649576, “Emergence of extended-spectrum beta-lactamase PER-1 in Proteus vulgaris and Providencia stuartii isolates from Algiers, Algeria” (2009).
Converted amounts (≈) assume the structure as drawn.

What was measured:
Assay type in all cases: functional
Escherichia coli [1] = assay: Antimicrobial activity against rifampin-resistant Escherichia coli J53 transconjugated with Providencia stuartii Ps5 expressing beta-lactamase PER-1 by Etest
Escherichia coli [2] = assay: Antimicrobial activity against rifampin-resistant Escherichia coli J53 transconjugated with Proteus vulgaris Pv8 expressing beta-lactamase PER-1 by […]
Proteus vulgaris [3] = assay: Antimicrobial activity against Proteus vulgaris Pv5 expressing beta-lactamase PER-1 by Etest
Escherichia coli [4] = assay: Antimicrobial activity against rifampin-resistant Escherichia coli J53 transconjugated with Proteus vulgaris Pv5 expressing beta-lactamase PER-1 by […]
Proteus vulgaris [5] = assay: Antimicrobial activity against Proteus vulgaris Pv9 expressing beta-lactamase PER-1 by Etest
Proteus vulgaris [6] = assay: Antimicrobial activity against Proteus vulgaris Pv7 expressing beta-lactamase PER-1 by […]
Proteus vulgaris [7] = assay: Antimicrobial activity against Proteus vulgaris Pv5 expressing beta-lactamase PER-1 by […]
Escherichia coli [8] = assay: Antimicrobial activity against rifampin-resistant Escherichia coli J53 transconjugated with Proteus vulgaris Pv7 expressing beta-lactamase PER-1 by […]
Providencia stuartii [9] = assay: Antimicrobial activity against Providencia stuartii Ps5 expressing beta-lactamase PER-1 by […]
Escherichia coli [10] = assay: Antimicrobial activity against rifampin-resistant Escherichia coli J53 transconjugated with Providencia stuartii Ps5 expressing beta-lactamase PER-1 by […]
Proteus vulgaris [11] = assay: Antimicrobial activity against Proteus vulgaris Pv8 expressing beta-lactamase PER-1 by Etest
Proteus vulgaris [12] = assay: Antimicrobial activity against Proteus vulgaris Pv7 expressing beta-lactamase PER-1 by Etest
Escherichia coli [13] = assay: Antimicrobial activity against rifampin-resistant Escherichia coli J53 transconjugated with Proteus vulgaris Pv7 expressing beta-lactamase PER-1 by Etest
Providencia stuartii [14] = assay: Antimicrobial activity against Providencia stuartii Ps5 expressing beta-lactamase PER-1 by Etest
Proteus vulgaris [15] = assay: Antimicrobial activity against Proteus vulgaris Pv9 expressing beta-lactamase PER-1 by […]
Escherichia coli [16] = assay: Antimicrobial activity against rifampin-resistant Escherichia coli J53 transconjugated with Proteus vulgaris Pv9 expressing beta-lactamase PER-1 by Etest
Escherichia coli [17] = assay: Antimicrobial activity against rifampin-resistant Escherichia coli J53 transconjugated with Proteus vulgaris Pv9 expressing beta-lactamase PER-1 by […]
Escherichia coli [18] = assay: Antimicrobial activity against rifampin-resistant Escherichia coli J53 transconjugated with Proteus vulgaris Pv5 expressing beta-lactamase PER-1 by Etest
Proteus vulgaris [19] = assay: Antimicrobial activity against Proteus vulgaris Pv8 expressing beta-lactamase PER-1 by […]
Escherichia coli [20] = assay: Antimicrobial activity against rifampin-resistant Escherichia coli J53 transconjugated with Proteus vulgaris Pv8 expressing beta-lactamase PER-1 by Etest

For `CO/N=C(\C(=O)N[C@@H]1C(=O)N2C(C(=O)O)=C(COC(C)=O)CS[C@H]12)c1csc(N)n1` [CEFOTAXIME], the MIC (Escherichia coli [1]) was 32 µg/mL (≈ 70.3 µM), the MIC (Escherichia coli [2]) was 16 µg/mL (≈ 35.1 µM) and the MIC (Proteus vulgaris [3]) was 32 µg/mL (≈ 70.3 µM). It also gave an MIC (Escherichia coli [4]) of 32 µg/mL (≈ 70.3 µM), an MIC (Proteus vulgaris [5]) of 32 µg/mL (≈ 70.3 µM) and an MIC (Proteus vulgaris [6]) of 32 µg/mL (≈ 70.3 µM). The MIC (Proteus vulgaris [7]) was 32 µg/mL (≈ 70.3 µM), the MIC (Escherichia coli [8]) was 32 µg/mL (≈ 70.3 µM) and the MIC (Providencia stuartii [9]) was 32 µg/mL (≈ 70.3 µM). It also gave an MIC (Escherichia coli [10]) of 32 µg/mL (≈ 70.3 µM), an MIC (Proteus vulgaris [11]) of 32 µg/mL (≈ 70.3 µM) and an MIC (Proteus vulgaris [12]) of 32 µg/mL (≈ 70.3 µM). For the same molecule, the MIC (Escherichia coli [13]) was 31 µg/mL (≈ 68.1 µM), the MIC (Providencia stuartii [14]) was 32 µg/mL (≈ 70.3 µM) and the MIC (Proteus vulgaris [15]) was 32 µg/mL (≈ 70.3 µM). It also gave an MIC (Escherichia coli [16]) of 32 µg/mL (≈ 70.3 µM), an MIC (Escherichia coli [17]) of 32 µg/mL (≈ 70.3 µM) and an MIC (Escherichia coli [18]) of 32 µg/mL (≈ 70.3 µM). For the same molecule, the MIC (Proteus vulgaris [19]) was 32 µg/mL (≈ 70.3 µM) and the MIC (Escherichia coli [20]) was 16 µg/mL (≈ 35.1 µM).

`CCN1CCN(C(=O)N[C@@H](C(=O)N[C@@H]2C(=O)N3[C@@H]2SC(C)(C)[C@@H]3C(=O)O)c2ccccc2)C(=O)C1=O` [PIPERACILLIN] gave an MIC (Escherichia coli [1]) of 32 µg/mL (≈ 61.8 µM), an MIC (Escherichia coli [2]) of 16 µg/mL (≈ 30.9 µM) and an MIC (Proteus vulgaris [3]) of 16 µg/mL (≈ 30.9 µM). It also gave an MIC (Escherichia coli [4]) of 16 µg/mL (≈ 30.9 µM), an MIC (Proteus vulgaris [5]) of 32 µg/mL (≈ 61.8 µM) and an MIC (Proteus vulgaris [6]) of 32 µg/mL (≈ 61.8 µM). It also gave an MIC (Proteus vulgaris [7]) of 16 µg/mL (≈ 30.9 µM), an MIC (Escherichia coli [8]) of 32 µg/mL (≈ 61.8 µM) and an MIC (Providencia stuartii [9]) of 32 µg/mL (≈ 61.8 µM). For the same molecule, the MIC (Escherichia coli [10]) was 32 µg/mL (≈ 61.8 µM), the MIC (Proteus vulgaris [11]) was 16 µg/mL (≈ 30.9 µM) and the MIC (Proteus vulgaris [12]) was 32 µg/mL (≈ 61.8 µM). It also gave an MIC (Escherichia coli [13]) of 32 µg/mL (≈ 61.8 µM), an MIC (Providencia stuartii [14]) of 32 µg/mL (≈ 61.8 µM) and an MIC (Proteus vulgaris [15]) of 32 µg/mL (≈ 61.8 µM). The MIC (Escherichia coli [16]) was 32 µg/mL (≈ 61.8 µM), the MIC (Escherichia coli [17]) was 32 µg/mL (≈ 61.8 µM) and the MIC (Escherichia coli [18]) was 16 µg/mL (≈ 30.9 µM). For the same molecule, the MIC (Proteus vulgaris [19]) was 16 µg/mL (≈ 30.9 µM) and the MIC (Escherichia coli [20]) was 16 µg/mL (≈ 30.9 µM).

Molecule `C[C@@H](O)[C@H]1C(=O)N2C(C(=O)O)=C(SCCNC=N)C[C@H]12` [IMIPENEM ANHYDROUS] has an MIC (Escherichia coli [1]) of 0.125 µg/mL (≈ 0.418 µM), an MIC (Escherichia coli [2]) of 0.125 µg/mL (≈ 0.418 µM) and an MIC (Proteus vulgaris [3]) of 1 µg/mL (≈ 3.34 µM). The MIC (Escherichia coli [4]) was 0.25 µg/mL (≈ 0.835 µM), the MIC (Proteus vulgaris [5]) was 1 µg/mL (≈ 3.34 µM) and the MIC (Proteus vulgaris [6]) was 1 µg/mL (≈ 3.34 µM). The MIC (Proteus vulgaris [7]) was 1 µg/mL (≈ 3.34 µM), the MIC (Escherichia coli [8]) was 0.125 µg/mL (≈ 0.418 µM) and the MIC (Providencia stuartii [9]) was 2 µg/mL (≈ 6.68 µM). For the same molecule, the MIC (Escherichia coli [10]) was 0.125 µg/mL (≈ 0.418 µM), the MIC (Proteus vulgaris [11]) was 1 µg/mL (≈ 3.34 µM) and the MIC (Proteus vulgaris [12]) was 1 µg/mL (≈ 3.34 µM). It also gave an MIC (Escherichia coli [13]) of 0.125 µg/mL (≈ 0.418 µM), an MIC (Providencia stuartii [14]) of 2 µg/mL (≈ 6.68 µM) and an MIC (Proteus vulgaris [15]) of 1 µg/mL (≈ 3.34 µM). It also gave an MIC (Escherichia coli [16]) of 0.25 µg/mL (≈ 0.835 µM), an MIC (Escherichia coli [17]) of 0.25 µg/mL (≈ 0.835 µM) and an MIC (Escherichia coli [18]) of 0.25 µg/mL (≈ 0.835 µM). It also gave an MIC (Proteus vulgaris [19]) of 1 µg/mL (≈ 3.34 µM) and an MIC (Escherichia coli [20]) of 0.125 µg/mL (≈ 0.418 µM).

Work on `CC(C)(O/N=C(\C(=O)N[C@@H]1C(=O)N2C(C(=O)[O-])=C(C[n+]3ccccc3)CS[C@H]12)c1csc(N)n1)C(=O)O` [CEFTAZIDIME] yielded an MIC (Escherichia coli [1]) of over 256 µg/mL, an MIC (Escherichia coli [2]) of over 256 µg/mL and an MIC (Proteus vulgaris [3]) of over 256 µg/mL. For the same molecule, the MIC (Escherichia coli [4]) was over 256 µg/mL, the MIC (Proteus vulgaris [5]) was over 256 µg/mL and the MIC (Proteus vulgaris [6]) was over 256 µg/mL. The MIC (Proteus vulgaris [7]) was over 256 µg/mL, the MIC (Escherichia coli [8]) was over 256 µg/mL and the MIC (Providencia stuartii [9]) was over 256 µg/mL. It also gave an MIC (Escherichia coli [10]) of over 256 µg/mL, an MIC (Proteus vulgaris [11]) of over 256 µg/mL and an MIC (Proteus vulgaris [12]) of over 256 µg/mL. The MIC (Escherichia coli [13]) was over 256 µg/mL, the MIC (Providencia stuartii [14]) was over 256 µg/mL and the MIC (Proteus vulgaris [15]) was over 256 µg/mL. It also gave an MIC (Escherichia coli [16]) of over 256 µg/mL, an MIC (Escherichia coli [17]) of over 256 µg/mL and an MIC (Escherichia coli [18]) of over 256 µg/mL. It also gave an MIC (Proteus vulgaris [19]) of over 256 µg/mL and an MIC (Escherichia coli [20]) of over 256 µg/mL.

Work on `CO/N=C(\C(=O)N[C@@H]1C(=O)N2C(C(=O)[O-])=C(C[N+]3(C)CCCC3)CS[C@H]12)c1csc(N)n1` [CEFEPIME] yielded an MIC (Escherichia coli [2]) of 8 µg/mL (≈ 16.6 µM), an MIC (Proteus vulgaris [3]) of 32 µg/mL (≈ 66.6 µM) and an MIC (Escherichia coli [4]) of 16 µg/mL (≈ 33.3 µM). For the same molecule, the MIC (Proteus vulgaris [5]) was 8 µg/mL (≈ 16.6 µM), the MIC (Proteus vulgaris [6]) was 16 µg/mL (≈ 33.3 µM) and the MIC (Proteus vulgaris [7]) was 32 µg/mL (≈ 66.6 µM). For the same molecule, the MIC (Providencia stuartii [9]) was 8 µg/mL (≈ 16.6 µM), the MIC (Proteus vulgaris [11]) was 32 µg/mL (≈ 66.6 µM) and the MIC (Proteus vulgaris [12]) was 16 µg/mL (≈ 33.3 µM). It also gave an MIC (Providencia stuartii [14]) of 8 µg/mL (≈ 16.6 µM), an MIC (Proteus vulgaris [15]) of 8 µg/mL (≈ 16.6 µM) and an MIC (Escherichia coli [16]) of 8 µg/mL (≈ 16.6 µM). It also gave an MIC (Escherichia coli [17]) of 8 µg/mL (≈ 16.6 µM), an MIC (Escherichia coli [18]) of 16 µg/mL (≈ 33.3 µM) and an MIC (Proteus vulgaris [19]) of 32 µg/mL (≈ 66.6 µM). The MIC (Escherichia coli [20]) was 8 µg/mL (≈ 16.6 µM).
